Results reported in patent US20190328857A1, “CALR AND JAK2 VACCINE COMPOSITIONS” (IO Biotech ApS, priority 2016, published 2019).

Key:
Assay type in all cases: cell-based, human
[1] = test system: UKE-1 and THP-1 cells; assay: ELISPOT of JAK201-specific T cells stimulated with cancer cell lines; settings: 100 U/ml IFN-γ 2 days before assaying
Description: (§1) Next, we examined the capacity of JAK201-specific T cells to recognize and kill cancer cells harboring the JAK2V617F mutation. UKE-1, SET-2 and THP-1 are acute myeloid leukemia cancer cell lines that are HLA-A2-positive. THP-1 cells are JAK2 wt, whereas UKE-1 cells are homozygous and SET-2 are heterozygous for the JAK2V617F mutation. We first examined JAK201-specific T-cells reaction towards the UKE-1 cancer cell line. […] IFN-γ is known to induce the immunoproteasome and to upregulate HLA class I on the cell surface overall enhancing the antigen presentation by the target cell.
Finally to confirm the recognition of cells expressing the JAK2V617F mutation, we transfected JAK2 wt THP-1 cells with mRNA encoding the JAK2V617F mutation using neural growth factor receptor (NGFR) encoding mRNA as control and used these cells as target cells in cytokine release and Granzyme B assays. […] More than 50% of patients with Philadelphia chromosomenegative chronic MPN harbor the JAK2V617F mutation. This acquired somatic mutation is found exclusively in myeloid malignancies, rendering it a cancer-specific antigen. JAK2V617F is consequently an attractive target for cancer immune therapy.

[2] = test system: UKE-1, SET-2 and THP-1 cells; assay: Standard Cr^51 cytotoxicity assay with JAK201-specific T cells and cancer cell lines
Description: as §1
Then we examined the importance of the intracellular expression of the JAK2V617F mutation for the recognition of target cells by JAK201-specific T cells. Thus to silence the JAK2V617F mutation, we transfected UKE-1 cells with JAK2V617F siRNA and used the transfected cells as target cells, and compared the recognition with mock transfected UKE-1 cells as previously described. Silencer siRNA duplex for targeted silencing of JAK2V617F with 3′-end overhang dT bases in the antisense strand (sense sequence 5′-[…]-3′ (SEQ ID NO: 21), antisense sequence 5′-[…]-3′ (SEQ ID NO: 22) for duplex 1; and sense sequence 5′-[…]-3′ (SEQ ID NO: 23), antisense sequence 5′-[…]-3′ (SEQ ID NO: 24) for duplex 2) were obtained from Invitrogen (Invitrogen, Paisley, UK). […]

[3] = test system: autologous CALRmut cells; assay: Intracellular cytokine staining of CALRLong1-specific T cells stimulated with autologous target cells; settings: IFN-γ 300 U/ml for 24 h
Procedure: As target cells, we used autologous CD14^+ monocytes and B-cells (BCL). As described above, CD14^+ monocytes were isolated using the MACS CD14 MicroBead kit. An autologous B-cell line was generated using EBV transfection of donor BCL at the Health Protection Agency Culture Collections, Salisbury, UK.
Frozen T-cells were thawed one day prior to assaying, and in experiments examining CD107a expression, a CD107a-PE antibody was added to cells directly after addition of peptide or target cells. After one hour of stimulation, protein-transport inhibitor Brefeldin A (BD Biosciences, San Jose, Calif., USA) was added to the cells which were then stimulated for four h. Cells were stained with CD3-APC-H7, CD4-FITC, CD8-PerCP, IFN-γ-APC, TNF-α-BV421 and Fixable Viability Stain 510 (BD Biosciences, San Jose, Calif., USA), permeabilized and washed with Permeabilization Reagent/Diluent and fixation-permeabilization buffer (AH Diagnostics, Aarhus, Denmark). Cells were acquired with a FACS Canto II (BD Biosciences) and analyzed using FACSDiva software. All effector cell stimulations were run in triplicate wells if not otherwise specified.
Autologous CD14^+ monocytes were cultured with CellGro, GM-CSF (1000 U/ml) and IL-4 (250 U/mL) and transfected with either CALR siRNA or negative-control siRNA (Invitrogen) the next day, using electroporation parameters as described previously (Met et al., 2011). In brief, monocytes were washed twice, suspended in Opti-MEM medium (Invitrogen) and adjusted to a final cell density of 10^7 cells/ml. The cell suspension (200 μl) was preincubated for 5 min on ice and subsequently, together with 5 μl of CALR siRNA or 10 μl of negative control siRNA transferred to a 2-mm gap electroporation and pulsed using a BTX 830 square-wave electroporator (Harvard Apparatus, Holliston Mass., USA). Electroporation settings were adjusted to a single pulse, 250 V, 2 ms. […]
As target cells, we used CD14^+ monocytes with CALRmut allelic burden of 71% and autologous EBV-transformed immortalized B-cells with a CALRmut allelic burden of 0% determined by PCR analysis. […]

IFN-γ: cytokine used to pretreat target cells to enhance antigen presentation
effect of pretreatment of UKE-1 cells on IFN-γ release from the T cells [1]: even greater release
lysis of SET-2 cells after stimulation ([2]; IFN-γ stimulation): likewise lysed
effect of treatment of UKE-1 cells on lysis ([2]; IFN-γ treatment): augmented
effect of target cell stimulation on T-cell activation, B-cells [3]: no change in activation
effect of target cell stimulation on T-cell activation, CALRmut monocytes [3]: significantly enhanced
